1 compound from PMC4833387 (PLoS ONE, 2016) can be followed below.

Molecules are shown by their SMILES.

The assay addresses T1, Aurora B kinase (Homo sapiens, UniProt Q96GD4).
T1 construct: gene AURKB; 6×His-Aurora B/INCENP^(822–918); with INCENP^(822–918)
Briefly: in vitro […] kinase assay with recombinant complex (histone H3.[…] and MBP substrates); confirmed by IP kinase assay from HeLa lysates. Type of assay: biochemical.

T1 sequence (Q96GD4 whole entry): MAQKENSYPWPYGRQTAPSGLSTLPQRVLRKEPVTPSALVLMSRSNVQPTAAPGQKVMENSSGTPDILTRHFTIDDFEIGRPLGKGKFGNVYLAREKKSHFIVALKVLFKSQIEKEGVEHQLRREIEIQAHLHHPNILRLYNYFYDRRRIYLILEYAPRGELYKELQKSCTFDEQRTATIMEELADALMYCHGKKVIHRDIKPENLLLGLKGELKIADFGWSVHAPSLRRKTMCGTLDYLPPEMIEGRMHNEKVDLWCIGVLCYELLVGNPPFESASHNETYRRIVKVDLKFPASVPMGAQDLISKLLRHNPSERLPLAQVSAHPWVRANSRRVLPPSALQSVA
T1 sequence (Q9NQS7 822-918 partner): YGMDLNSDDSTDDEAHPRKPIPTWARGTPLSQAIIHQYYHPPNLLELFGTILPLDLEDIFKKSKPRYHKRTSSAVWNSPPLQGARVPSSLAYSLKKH

For the compound `CC(=O)c1cnc2ccc(-c3cc(Cl)c(O)c(Cl)c3)nc2c1N[C@H]1CC[C@H](CN(C)C)CC1` [OTSSP167], the IC50 was about 25 nM.
